Results from publication PMC12002301, “Discovery and functional characterization of a bombesin-type neuropeptide signaling system in an invertebrate” (Proceedings of the National Academy of Sciences of the …, 2025).
“Also recorded” adds a separate entry of the source.

Tested on: ArBNR1
Assay: Luminescence (GFP-aequorin Ca2+) assay, CHO-K1 cells coexpressing ArBNR1 and Gqs5
Assay type: cell-based, Asterias rubens
Conditions: ArBNR1, words
Experimental: Having investigated relationships of eleven A. rubens BN-type receptor candidates (ArBNR1-11) with BN-type, ET-type, and CCHa/EP-type receptors in other taxa, ArBNR1 was identified as the best candidate and therefore this was selected for experimental testing. However, two other receptors (ArBNR2 and ArBNR3) were also tested. The methods employed for functional characterization of A. rubens neuropeptide receptors have been described previously ([57]) and a description of the methods employed in this study is included in SI Appendix, SI Methods. […]
As a complement to use of CLANS, phylogenetic trees were generated with the maximum-likelihood method (1000 bootstrap replicates) using One Step Build a ML Tree plugin in TBtools (12), specifying orexin-type receptors as an outgroup. […] Tree_B analysed the branch of tree_A containing ArBNR1; tree_C analysed the branch of tree_A containing ArBNR2; tree_D analysed the branch of tree_A containing ArBNR3; tree_E analysed the branch of tree_A containing ArBNR4, ArBNR5 and ArBNR6; tree_F analysed the branch of tree_A containing ArBNR7; tree_G analysed the branch of tree_A containing ArBNR8; tree_H analysed the branch of tree_A containing ArBNR9 and tree_I analysed the branch of tree_A containing ArBNR10 and ArBNR11. […]
identical to residues 18 - 270 of the protein XP_033631283.1, which was determined from genome […]

## EPMPSSLALYIANLSP-NH2 [ArBNP65-81, C-terminally amidated 16-residue peptide predicted to be derived from residues 65 to 81 of ArBNP]
  peptide-induced luminescence: did not trigger luminescence; also recorded: peptide-induced luminescence was only observed with ArBN5-14
